From patent US20230286968A1, “ARYLOXAZOLO SPIRAL RING DERIVATIVES FOR THE TREATMENT AND PROPHYLAXIS OF HEPATITIS B VIRUS INFECTION” (Hoffmann-La Roche Inc., priority 2020, published 2023)
Like-named read-outs stand apart in the source and are kept apart here.

Columns and labels:
[1] = Cytotoxicity in PHH natural infection assay (Cell Counting Kit-8); format: cell-based; settings: HBV-infected primary human hepatocytes, CCK8
Outline: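 HBV-infected primary human hepatocytes (200 GE/cell, 4% PEG8000, 24 h), sandwich-cultured 72 h, then given compound-containing medium twice at 72 h intervals. Cytotoxicity read by CCK-8 at end of treatment.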

HBsAg = experiment: PHH natural infection assay, HBsAg (alphalisa); format: cell-based, HBV
Outline: (§1)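 Cryopreserved PHH plated 24 h, infected with HBV at 200 GE/cell plus 4% PEG8000 for 24 h, then sandwich-cultured 72 h with 0.25 mg/mL matrix gel. Compounds at varied concentrations applied twice at 72-h intervals. Supernatant HBsAg and HBeAg measured by AlphaLISA with specific antibodies.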

HBeAg = experiment: PHH natural infection assay, HBeAg (alphalisa); format: cell-based, HBV
Outline: as §1

[2] = Hepatitis B virus, Hepatocyte, read-out: HBsAg IC50, HBV-infected primary human hepatocytes, supernatant, alphalisa
[3] = Hepatitis B virus, Hepatocyte, read-out: HBeAg IC50, HBV-infected primary human hepatocytes, supernatant, alphalisa
[4] = read-out: HBsAg IC50, HBV-infected primary human hepatocytes, supernatant, alphalisa
[5] = read-out: HBeAg IC50, HBV-infected primary human hepatocytes, supernatant, alphalisa

SMILES	CC50 at 144 h [1] [µM]	IC50 (HBsAg; [2]) [µM]	IC50 (HBeAg; [3]) [µM]	IC50 (HBsAg; [4]) [µM]	IC50 (HBeAg; [5]) [µM]
CC(=O)NS(=O)(=O)c1cc(C(=O)NC2CC3(C2)CC(c2nc4cc(Cl)ccc4o2)C3)ccn1 (stereo not drawn) [Example 99, 2-(Acetylsulfamoyl)-N-[6-(5-chloro-1,3-benzoxazol-2-yl)spiro[3.3]heptan-2-yl]pyridine-4-carboxamide]	> 10	2.1	1.33	–	–
CS(=N)(=O)c1cc(C(=O)NC2CC3(C2)CC(c2nc4cc(Cl)ccc4o2)C3)ccn1 (stereo not drawn) [Example 89, N-[6-(5-chloro-1,3-benzoxazol-2-yl)spiro[3.3]heptan-2-yl]-2-(methylsulfonimidoyl)pyridine-4-carboxamide]	> 100	2.45	0.86	–	–
CNS(=O)(=O)Nc1cc(C(=O)NC2CC3(C2)CC(c2nc4cc(Cl)ccc4o2)C3)ccn1 (stereo not drawn) [Example 22, N-[6-(5-chloro-1,3-benzoxazol-2-yl)spiro[3.3]heptan-2-yl]-2-(methylsulfamoylamino)pyridine-4-carboxamide]	> 10	4.94	4.38	–	–
CC(C)NC(=O)NC1CC2(C1)CC(c1nc3cc(Cl)ccc3o1)C2 (stereo not drawn) [Example 61, 1-[6-(5-chloro-1,3-benzoxazol-2-yl)spiro[3.3]heptan-2-yl]-3-isopropyl-urea]	> 100	4.71	3.82	–	–
CN(C)C(=O)c1cc(C(=O)NC2CC3(C2)CC(c2nc4cc(Cl)ccc4o2)C3)ccn1 (stereo not drawn) [Example 103, N4-[6-(5-chloro-1,3-benzoxazol-2-yl)spiro[3.3]heptan-2-yl]-N2,N2-dimethyl-pyridine-2,4-dicarboxamide]	> 10	5.63	4.02	–	–
O=C(CC1CCCS(=O)(=O)C1)NC1CC2(C1)CC(c1nc3cc(Cl)ccc3o1)C2 (stereo not drawn) [Example 55, N-[6-(5-chloro-1,3-benzoxazol-2-yl)spiro[3.3]heptan-2-yl]-2-(1,1-dioxothian-3-yl)acetamide]	78.9	3.39	2.6	–	–
CCN(C)C(=O)NC1CC2(C1)CC(c1nc3cc(Cl)ccc3o1)C2 (stereo not drawn) [Example 62, 3-[6-(5-chloro-1,3-benzoxazol-2-yl)spiro[3.3]heptan-2-yl]-1-ethyl-1-methyl-urea]	> 100	3.23	2.12	–	–
O=C(NC1CC2(C1)CC(c1nc3cc(Cl)ccc3o1)C2)N1CCC2(COC2)C1 (stereo not drawn) [Example 67, N-[6-(5-chloro-1,3-benzoxazol-2-yl)spiro[3.3]heptan-2-yl]-2-oxa-7-azaspiro[3.4]octane-7-carboxamide]	> 100	3.95	3.76	–	–
O=C(CN1CCCCS1(=O)=O)NC1CC2(C1)CC(c1nc3cc(Cl)ccc3o1)C2 (stereo not drawn) [Example 56, N-[6-(5-chloro-1,3-benzoxazol-2-yl)spiro[3.3]heptan-2-yl]-2-(1,1-dioxothiazinan-2-yl)acetamide]	> 100	2.29	2.06	–	–
CC1(C(=O)NC2CC3(C2)CC(c2nc4cc(Cl)ccc4o2)C3)CCS(=O)(=O)C1 (stereo not drawn) [Example 48, N-(6-(5-chlorobenzo[d]oxazol-2-yl)spiro[3.3]heptan-2-yl)-3-methyltetrahydrothiophene-3-carboxamide 1,1-dioxide]	> 100	2.62	1.1	–	–
O=C(NC1CCOC1)NC1CC2(C1)CC(c1nc3cc(Cl)ccc3o1)C2 (stereo not drawn) [Example 65, 1-[6-(5-chloro-1,3-benzoxazol-2-yl)spiro[3.3]heptan-2-yl]-3-tetrahydrofuran-3-yl-urea]	> 100	3.94	3.4	–	–
CCN(C)c1cc(C(=O)NC2CC3(C2)CC(c2nc4cc(Cl)ccc4o2)C3)ccn1 (stereo not drawn) [Example 7, N-[6-(5-chloro-1,3-benzoxazol-2-yl)spiro[3.3]heptan-2-yl]-2-[ethyl(methyl)amino]pyridine-4-carboxamide]	> 10	4.19	4.34	–	–
NC(=O)c1cc(C(=O)NC2CC3(C2)CC(c2nc4cc(Cl)ccc4o2)C3)ccn1 (stereo not drawn) [Example 101, N4-[6-(5-chloro-1,3-benzoxazol-2-yl)spiro[3.3]heptan-2-yl]pyridine-2,4-dicarboxamide]	> 100	0.32	0.22	–	–
O=C(NC1CC2(C1)CC(c1nc3cc(Cl)ccc3o1)C2)c1ccccn1 (stereo not drawn) [Example 1, N-[6-(5-chloro-1,3-benzoxazol-2-yl)spiro[3.3]heptan-2-yl]pyridine-2-carboxamide]	74.8	9.75	7.89	–	–
O=C(NC1CC2(C1)CC(c1nc3cc(Cl)ccc3o1)C2)C1CS(=O)(=O)C1 (stereo not drawn) [Example 49, N-[6-(5-chloro-1,3-benzoxazol-2-yl)spiro[3.3]heptan-2-yl]-1,1-dioxo-thietane-3-carboxamide]	96.1	3.27	2.61	–	–
CNc1cc(C(=O)NC2CC3(C2)CC(c2nc4cc(Cl)ccc4o2)C3)ccn1 (stereo not drawn) [Example 97, N-[6-(5-chloro-1,3-benzoxazol-2-yl)spiro[3.3]heptan-2-yl]-2-(methylamino)pyridine-4-carboxamide]	> 10	7.05	5.97	–	–
CN(C(=O)c1ccnc(S(C)(=O)=O)c1)C1CC2(CC(c3nc4cc(Cl)ccc4o3)C2)C1 (stereo not drawn) [Example 92, N-[6-(5-chloro-1,3-benzoxazol-2-yl)spiro[3.3]heptan-2-yl]-N-methyl-2-methylsulfonyl-pyridine-4-carboxamide]	> 10	3.05	2.02	–	–
O=C(NC1CC2(C1)CC(c1nc3cc(Cl)ccc3o1)C2)c1ccnc(S(=O)(=O)C2CNC2)c1 (stereo not drawn) [Example 98, 2-(Azetidin-3-ylsulfonyl)-N-[6-(5-chloro-1,3-benzoxazol-2-yl)spiro[3.3]heptan-2-yl]pyridine-4-carboxamide]	> 10	3.59	3.08	–	–
CS(=O)(=O)N1CC(CC(=O)NC2CC3(C2)CC(c2nc4cc(Cl)ccc4o2)C3)C1 (stereo not drawn) [Example 77, N-[6-(5-chloro-1,3-benzoxazol-2-yl)spiro[3.3]heptan-2-yl]-2-(1-methylsulfonylazetidin-3-yl)acetamide]	> 10	7.08	4.35	–	–
O=C(NC1CC2(C1)CC(c1nc3cc(Cl)ccc3o1)C2)C1CCN(C(=O)C2CC2)C1 (stereo not drawn) [Example 74, N-[6-(5-chloro-1,3-benzoxazol-2-yl)spiro[3.3]heptan-2-yl]-1-(cyclopropanecarbonyl)pyrrolidine-3-carboxamide]	> 10	3.2	2.17	–	–
[H][C@]1(NC(=O)C2CCS(=O)(=O)CC2)C[C@@]2(C1)C[C@]([H])(c1nc3cc(Cl)ccc3o1)C2 (single isomer, unassigned) [Example 82b, (Sa)—N-[6-(5-chloro-1,3-benzoxazol-2-yl)spiro[3.3]heptan-2-yl]-1,1-dioxo-thiane-4-carboxamide]	> 100	–	–	2.04	1.47
O=C(NC1CC2(C1)CC(c1nc3cc(Cl)ccc3o1)C2)C1CNS(=O)(=O)C1 (stereo not drawn) [Example 43, N-[6-(5-chloro-1,3-benzoxazol-2-yl)spiro[3.3]heptan-2-yl]-1,1-dioxo-1,2-thiazolidine-4-carboxamide]	> 10	9.04	3.81	–	–
[H][C@]1(NC(=O)c2ccnc(S(C)(=O)=O)c2)C[C@@]2(C1)C[C@]([H])(c1nc3cc(Cl)ccc3o1)C2 (single isomer, unassigned) [Example 87-b, (Sa)—N-[6-(5-chloro-1,3-benzoxazol-2-yl)spiro[3.3]heptan-2-yl]-2-methylsulfonyl-pyridine-4-carboxamide]	> 10	–	–	3.68	3.29
O=C1CCC(CC(=O)NC2CC3(C2)CC(c2nc4cc(Cl)ccc4o2)C3)N1 (stereo not drawn) [Example 37, N-[6-(5-chloro-1,3-benzoxazol-2-yl)spiro[3.3]heptan-2-yl]-2-(5-oxopyrrolidin-2-yl)acetamide]	> 10	6	3.75	–	–
NS(=O)(=O)c1cc(C(=O)NC2CC3(C2)CC(c2nc4cc(Cl)ccc4o2)C3)ccn1 (stereo not drawn) [Example 19, N-[6-(5-chloro-1,3-benzoxazol-2-yl)spiro[3.3]heptan-2-yl]-2-sulfamoyl-pyridine-4-carboxamide]	> 10	2.25	1.24	–	–
N=C(N)c1cc(C(=O)NC2CC3(C2)CC(c2nc4cc(Cl)ccc4o2)C3)ccn1 (stereo not drawn) [Example 96, 2-Carbamimidoyl-N-[6-(5-chloro-1,3-benzoxazol-2-yl)spiro[3.3]heptan-2-yl]pyridine-4-carboxamide]	> 10	7.6	5.65	–	–
CC(C)N(C)c1cc(C(=O)NC2CC3(C2)CC(c2nc4cc(Cl)ccc4o2)C3)ccn1 (stereo not drawn) [Example 12, N-[6-(5-chloro-1,3-benzoxazol-2-yl)spiro[3.3]heptan-2-yl]-2-[isopropyl(methyl)amino]pyridine-4-carboxamide]	> 10	2.03	1.55	–	–
CCN(CC)c1cc(C(=O)NC2CC3(C2)CC(c2nc4cc(Cl)ccc4o2)C3)ccn1 (stereo not drawn) [Example 6, N-[6-(5-chloro-1,3-benzoxazol-2-yl)spiro[3.3]heptan-2-yl]-2-(diethylamino)pyridine-4-carboxamide]	> 10	6.56	4.87	–	–
